Assay [1] has as its system PKB Ser473 phosphorylation in Rat1-myr-HA-p110 delta cells. Put plainly: Reverse protein array, PKB Ser473 phosphorylation in Rat1-myr-HA-p110 delta cells. Type of assay: cell-based. The conditions noted are these: Rattus norvegicus, 0.5 h, 30 minutes compound incubation, read-out: p-PKB/IC50_delta.
Assay [2] concerns S6 Ribosomal Protein phosphorylation Ser235/236 in TSC1 null mouse embryo fibroblast (MEF) cells. Kind of assay: Reverse protein array, S6 Ribosomal Protein phosphorylation in TSC1 null MEF cells. Format: cell-based. The conditions noted are these: 1 h, TSC1-/- MEFs, 60 minutes, read-out: p-S6 IC50. The method, boiled down: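 Phospho-S6 (Ser235/236) was quantified by reverse protein array of cell lysates with a phospho-specific primary antibody. […]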

The text below walks through data of patent US20100311714A1, “1H-IMIDAZO[4,5-c]QUINOLINONE COMPOUNDS” (priority 2009, published 2010).

Take `CNc1ccc(-c2ccc3ncc4c(c3c2)n(-c2ccc(N3CCCC3)nc2C)c(=O)n4C)cn1` [Example 25.1, 3-Methyl-8-(6-methylamino-pyridin-3-yl)-1-(2-methyl-6-pyrrolidin-1-yl-pyridin-3-yl)-1,3-dihydro-imidazo[4,5-c]quinolin-2-one]: the IC50 was 26 nM in assay [1] and 1 nM in assay [2].
`Cc1nc(N2CCC(O)C2)ccc1-n1c(=O)n(C)c2cnc3ccc(-c4cncc(OC(C)C)c4)cc3c21` (centres unmarked) [Example 27.1, 1-[6-(3-Hydroxy-pyrrolidin-1-yl)-2-methyl-pyridin-3-yl]-8-(5-isopropoxy-pyridin-3-yl)-3-methyl-1,3-dihydro-imidazo[4,5-c]quinolin-2-one]: the results for the IC50 in assay [1] and in assay [2] were 64.5 nM and 2 nM, respectively.
In the case of `CNc1cc(-c2ccc3ncc4c(c3c2)n(-c2ccc(C(F)(F)F)nc2C)c(=O)n4C)cnc1CO` [Example 33.2, 8-(6-Hydroxymethyl-5-methylamino-pyridin-3-yl)-3-methyl-1-(2-methyl-6-trifluoromethyl-pyridin-3-yl)-1,3-dihydro-imidazo[4,5-c]quinolin-2-one], the IC50 in assay [1] turned out to be 28.2 nM; in assay [2], 2 nM.
The corresponding values for `Cc1nc(N2CC(F)(F)C(F)(F)C2)ccc1-n1c(=O)n(C)c2cnc3ccc(-c4cncc(C(C)(C)O)c4)cc3c21` [Example 35.1, 8-[5-(1-Hydroxy-1-methyl-ethyl)-pyridin-3-yl]-3-methyl-1-[2-methyl-6-(3,3,4,4-tetrafluoro-pyrrolidin-1-yl)-pyridin-3-yl]-1,3-dihydro-imidazo[4,5-c]quinolin-2-one] are 25.5 nM and 0.79 nM.
